Measured values from patent US7803571B2, “Method for identifying IRS inhibitors or agonists” (Sanfoi-Aventis Deutschland GmbH, priority 2003, dated 2010).

Key:
Assay type in all cases: biochemical
[1] = system: PKC from rat brain (PKC-rb); experiment: Serine/threonine phosphorylation of rIRS-1^449-664 by PKC from rat brain ([32P]ATP, autoradiography); settings: 0.5 μg PKC-rb, 1 μg rIRS-1^449-664, 50 μM ATP
Method: For rIRS-1^449-664 phosphorylation by insulin receptor, […] of the WGA-purified glycoprotein fraction was preincubated for 30 min at 30° C. with 100 nM of insulin in a phosphorylation buffer containing 20 mM Hepes (pH 7.4), 1 mM DTT, 10 mM MgCl2, 100 μg/ml bovine serum albumin, 0.2 mM Na3VO4, 1.7 mM CaCl2, 0.6 mg/ml phosphatidylserine, and 0.5 μg/ml okadaic acid. Autophosphorylation was initiated by the addition of ATP at a concentration of 50 μM and continued for 10 min at 30° C. Substrate phosphorylations were initiated by addition of equal volumes of […] (1 μg) with or without pre-treatment (30 min) by the PKC isoforms in the same buffer in the presence of 50 μM ATP and was allowed to proceed for 10 min at 30° C. in a final volume of 50 μl. […] Proteins were separated by SDS-PAGE and analyzed by immunodetection with an anti-phosphotyrosine antibody after transfer to nitrocellulose. Serine/threonine phosphorylation of rIRS-1^449-664 by different PKC isoforms was assessed by incubating 1 μg rIRS-1^449-664 with 0.5 μg PKC-rb or PKC-ζ in phosphorylation buffer for 30 min at 30° C. in the presence of 50 μM ATP plus 2 μCi [γ-^32P]ATP in a volume of 20 μl. […] The extent of phosphate incorporation was determined by Cerenkov counting of excised fragments. […]

[2] = target: T1, insulin receptor (Rattus norvegicus, UniProt P15127); experiment: In vitro phosphorylation assay: tyrosine phosphorylation of rIRS-1^449-664 by insulin receptor; settings: BIM added for 10 min before substrate phosphorylation by IR
T1 construct: from tissue; host or cells: rat liver
Method: Rat liver was rapidly removed, immediately frozen in liquid nitrogen and processed as described (41). Briefly, 3.5 vol/wt of an ice-cold buffer consisting of 50 mM Hepes (pH 7.4), 1% Triton X-100 and 2× Complete Protease Inhibitors was added and the liver was homogenized using an Ultraturrax and a Potter-Elvehjem homogenizer, followed by centrifugation at 10,000×g for 10 min at 4° C. The resultant supernatant was slowly stirred at room temperature for 60 min, then again centrifuged at 100,000×g for 90 min at 4° C. The supernatant was then applied to an agarose-bound wheat germ agglutinin (WGA) column. The column was washed with 50 mM Hepes (pH 7.4), 0.1% Triton X-100, and bound glycoproteins were eluted from the WGA column with this buffer containing 0.3 M N-acetylglucoseamine.
For rIRS-1^449-664 phosphorylation by insulin receptor, […] of the WGA-purified glycoprotein fraction was preincubated for 30 min at 30° C. with 100 nM of insulin in a phosphorylation buffer containing 20 mM Hepes (pH 7.4), 1 mM DTT, 10 mM MgCl2, 100 μg/ml bovine serum albumin, 0.2 mM Na3VO4, 1.7 mM CaCl2, 0.6 mg/ml phosphatidylserine, and 0.5 μg/ml okadaic acid. Autophosphorylation was initiated by the addition of ATP at a concentration of 50 μM and continued for 10 min at 30° C. Substrate phosphorylations were initiated by addition of equal volumes of […] (1 μg) with or without pre-treatment (30 min) by the PKC isoforms in the same buffer in the presence of 50 μM ATP and was allowed to proceed for 10 min at 30° C. in a final volume of 50 μl. The reaction was terminated by the addition of 6× sample buffer (0.35 M Tris-HCl (pH 6.8), 10.28% (w/v) SDS, 36% (v/v) glycerol; 0.6 M DTT, 0.012% (w/v) bromphenol blue) and boiling for 5 min. Proteins were separated by SDS-PAGE and analyzed by immunodetection with an anti-phosphotyrosine antibody after transfer to nitrocellulose. Serine/threonine phosphorylation of rIRS-1^449-664 by different PKC isoforms was assessed by incubating 1 μg rIRS-1^449-664 with 0.5 μg PKC-rb or PKC-ζ in phosphorylation buffer for 30 min at 30° C. in the presence of 50 μM ATP plus 2 μCi [γ-^32P]ATP in a volume of 20 μl. Proteins were resolved by SDS-PAGE and the stained and dried gels were subjected to autoradiography. The extent of phosphate incorporation was determined by Cerenkov counting of excised fragments.
Proteins were separated by SDS-PAGE using 8-18% gradient gels followed by transfer to nitrocellulose in a semi-dry blotting apparatus. […] All blots were quantified using the Lumilmager software. Significance of reported differences was evaluated by using the null hypothesis and t statistics for unpaired data. […]

[3] = system: PKC; experiment: Phosphorylation of IRS-1 serine 612 by PKC, immunoblot with phosphoserine 612 antibody; settings: PKC from rat brain and PKC-ζ, 30 min at 30° C.
Method: (A) 0.5 μg of rIRS-1^449-664 was incubated with 0.5 μg of the different PKCs for 30 min at 30° C. and immunoblotted with an antibody against phosphoserine 612. A representative experiment is shown. (B) Binding of p85α to immobilized peptides corresponding to the IRS-1 amino acids 605 to 615 with phosphotyrosine 608 or (C) without phosphotyrosine using surface plasmon resonance (pY608 -DDGpYMPMSPGV and Y608 -DDGYMPMSPGV). Protein concentrations of p85α used were (from bottom to top): 1, 5,10, 25, 50,100, 250, 500 nM. (D) Inhibition of p85α binding by competition with soluble peptides pY608-DDGpYMPMSPGV or (E) pY608-pS612-DDGpYMPMpSPGV. The soluble peptides were also immobilized on the chip. (F) Half-maximum inhibitory concentrations (IC50) were obtained by plotting the SPR response at equilibrium (440 s after injection) versus the log peptide concentration.
The inventors assessed modification of this site by PKC using a specific IRS-1 phosphoserine 612 antibody (αpS^612).

T1 sequence (P15127 27-759 limits assumed): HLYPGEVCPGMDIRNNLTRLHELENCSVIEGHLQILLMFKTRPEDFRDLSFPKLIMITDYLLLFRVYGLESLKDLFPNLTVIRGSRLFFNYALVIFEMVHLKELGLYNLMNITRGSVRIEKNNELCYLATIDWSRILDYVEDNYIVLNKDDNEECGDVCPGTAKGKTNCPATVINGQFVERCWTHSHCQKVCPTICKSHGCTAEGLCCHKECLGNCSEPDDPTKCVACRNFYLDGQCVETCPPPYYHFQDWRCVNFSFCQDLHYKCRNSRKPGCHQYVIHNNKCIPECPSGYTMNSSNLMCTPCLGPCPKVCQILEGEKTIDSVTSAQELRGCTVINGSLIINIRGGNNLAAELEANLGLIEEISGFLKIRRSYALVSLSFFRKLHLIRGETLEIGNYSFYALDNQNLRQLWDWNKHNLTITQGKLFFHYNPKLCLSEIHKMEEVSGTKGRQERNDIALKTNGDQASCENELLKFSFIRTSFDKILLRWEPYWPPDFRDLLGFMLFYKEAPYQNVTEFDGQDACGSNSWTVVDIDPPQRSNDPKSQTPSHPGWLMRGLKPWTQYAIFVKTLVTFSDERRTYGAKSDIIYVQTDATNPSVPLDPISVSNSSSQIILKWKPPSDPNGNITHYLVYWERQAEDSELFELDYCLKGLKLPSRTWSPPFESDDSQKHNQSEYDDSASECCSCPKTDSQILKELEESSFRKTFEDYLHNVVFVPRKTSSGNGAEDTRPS

Question: What does the source list for `CN(C)CCCn1cc(C2=C(c3c[nH]c4ccccc34)C(=O)NC2=O)c2ccccc21` [BIM, bisindolylmaleimide I]?
Answer: Phosphorylation of rIRS-1^449-664 by PKC-rb in the presence of inhibitor [1]: inhibited; Effect of inhibiting PKC-rb after phosphorylation of rIRS-1^449-664 on the reduced tyrosine phosphorylation and p85α association [2]: did not modify this result; Phosphorylation of serine 612 of rIRS-1^449-664 by PKC in the presence of inhibitor [3]: clearly prevented the phosphorylation of this serine
